Assay results as given in patent publication US20070135515A1, “Method for producing sorbicillactone a” (priority 2004, published 2007).

Legend:
[1] = test system: L5178Y mouse lymphoma cells (ATCC CRL 1722); experiment: Genotoxicity: Comet-Assay (alkaline electrophoresis, extent tail moment); type: cell-based; details: 1, 3, and 10 μg/mL
Description: Material: “Normal Melting Agarose” (NMA, Cat.-No. 840041) and “Low Melting Agarose” (LMA, Kat.-Nr. 870081) were obtained from Biozym (Hamburg, Germany), Triton x-100 from Fluka (Buchs S G, Schwitzerland), RPMI1640-medium, DMSO, and EDTA from Sigma-Aldrich (Taufkirchen, Germany), NaCl and Tris from Roth (Karlsruhe, Germany) and foetal calf serum (FCS) from Gibco (Karlsruhe, Germany). Sorbicillactone A of the batch: 2208/2a was used.
Cells: The genotoxicity of sorbicillactone A was tested on L5178Y mouse lymphoma cells (ATCC CRL 1722). As described (Müller et al., 1979, Cancer Res. 39:1102-1107), the cells were cultured in RPMI1640-medium with 10 mM Hepes, which was supplemented with 10% foetal calf serum (FCS). As a concentration of the inoculum, 10^4 cells/mL was chosen. The cells were incubated with 1, 3, and 10 μg/mL sorbicillactone A for 4 and 24 hours. After the incubation, the cells were examined with the “Comet-Assay”.
Alkaline electrophoresis: The object slides (Superfrost) were cleaned with acetone. 1.0-percent “Normal Melting Agarose” (NMA) in 1×PBS was cooked, and subsequently about 600 μl of agarose were applied onto an object slide. The object slides were shortly (˜5 min) dried at 50° C., and stored over night at room temperature. Then, the 0.7-percent “Low Melting Agarose” (LMA) was prepared in distilled water. The second layer on the object slides consisted of 200 μl LMA. […]

[2] = test system: L5178Y-mouse lymphoma cells (ATCC CRL 1722); experiment: Apoptosis detection (Cell Death Detection ELISA plus); type: cell-based; details: for MW ± SD (OD) / % of the control (negative): 4 hours incubation; for MW ± SD (OD): 405 nm; for % of the control (negative): negative control = 100%
Description: Material: RPMI1640-medium, Hepes buffered, was obtained from Sigma-Aldrich (Taufkirchen, Germany), foetal calf serum (FCS) from Gibco (Karlsruhe, Germany), and Cell Death Detection ELISA plus from Roche (Mannheim, Germany, Cat. No. 1774425). Sorbicillactone A of the batch: 2208/2a was used.
Incubation and preparation of the cells: The L5178Y-mouse lymphoma cells (ATCC CRL 1722)) were counted, and adjusted to a number of cells of 10^4 cells/mL. The sorbicillactone-A- and dihydrosorbicillactone-A-stock solution (10 mg/mL in DMSO) was diluted with medium (RPMI/Hepes with 10% FCS) to concentrations of 60, 20, and 6 μg/mL. In a 96-well-culture plate, 100 μl cell suspension (˜10^3 cells) were each pipetted to each of the 100 μl of the different dihydrosorbicillactone-A- and sorbicillactone-A-solutions. RPMI1640-medium without dihydrosorbicillactone and sorbicillactone A was used as a negative control. The final concentrations were 30, 10, and 3 μg/mL sorbicillactone A and dihydrosorbicillactone A. Four parallel settings of each sample were analysed. The cells were incubated for 4 hours at 37° C. After the incubation, the culture plate was centrifuged at […] (˜1200 rpm) for 10 min at room temperature. The supernatant was carefully pipetted off, and the cells were each overlayered with 200 μl lysis-buffer (Roche-Kit). Then, the cells were lysed for 30 min at room temperature. After the lysis, the culture plate was again centrifuged at 200×g (˜1200 rpm) for 10 min at room temperature.
ELISA: Two strips with eight wells each were taken from the streptavidin-ELISA-plate of the Roche-kit. 20 μl of the supernatant of a cell-lysis (see above) were added into each well. In doing so, the samples with 30 or 10 μg/mL of sorbicillactone A and dihydrosorbicillactone A were loaded as 4-fold, and all other as duplicate determinations. In addition to these sample, a positive control (DNA-histone-complex) was loaded. Then, 80 μl of immune reagent were added into each well. This solution consisted of incubation buffer, anti-histone-biotin, and anti-DNA-peroxidase. The incubation buffer was used as a blank value. The ELISA-plate was incubated for 2 hours in a shaking incubator at room temperature. Them the supernatants were carefully removed, and the wells were each washed 3× with 250 μl of the incubation buffer. After the washing, 100 μl of ABTS-solution were added into each “well”. Subsequently, the cells were incubated for 30 min in the dark at room temperature. The measurement took place in a multiscan at an emission wavelength of 405 nm.

For C/C=C/C=C/C(O)=C1/C(=O)C(C)=C(O)[C@@]2(C)OC(=O)[C@@](C)(NC(=O)/C=C/C(=O)O)[C@@H]12 [sorbicillactone A], the “change of the extent tail moment (DNA-strand scissions)” value ([1]; 4 hours incubation, FIG. 2A) was “did not exhibit significant changes”, the “change of the extent tail moment (DNA-strand scissions)” value ([1]; 24 hours incubation, FIG. 2B) was “no significant changes” and the “MW ± SD (OD)” value ([2]; 3 μg/mL) was 0.062 ± 0.004 OD. The “% of the control (negative)” value ([2]; 3 μg/mL) was 91.2%, the increase of apoptosis-cells ([2]; 3 μg/mL, 4 hours of incubation) was “did not result in an increase of apoptosis-cells” and the “MW ± SD (OD)” value ([2]; 10 μg/mL) was 0.193 ± 0.010 OD. For the same molecule, the “% of the control (negative)” value ([2]; 10 μg/mL) was 283.8%, the “MW ± SD (OD)” value ([2]; 30 μg/mL) was 0.219 ± 0.024 OD and the “% of the control (negative)” value ([2]; 30 μg/mL) was 322.1%. For the same molecule, the induction of apoptosis ([2]; 10 and 30 μg/mL, 4 hours of incubation) was “induces apoptosis”.
